Measurements as given in patent US20140171357A1, “VANCOMYCIN DERIVATIVES” (Seachald Pharmaceuticals, Inc., priority 2011, published 2014).
Values after ≈ are worked out from the molar mass of the structure shown.

Assays:
[1] = system: methicillin-susceptible S. aureus (MSSA, 22); test: MIC broth microdilution, MSSA
[2] = system: methicillin-resistant S. aureus (MRSA, 22); test: MIC broth microdilution, MRSA
[3] = system: Staphylococcus epidermidis (43 strains); test: MIC broth microdilution, S. epidermidis
[4] = system: VanA vancomycin-resistant E. faecium (10); test: MIC broth microdilution, VanA E. faecium
[5] = system: VanB vancomycin-resistant E. faecium (10); test: MIC broth microdilution, VanB E. faecium
[6] = system: VanA vancomycin-resistant E. faecalis (11); test: MIC broth microdilution, VanA E. faecalis
[7] = system: VanB vancomycin-resistant E. faecalis (12); test: MIC broth microdilution, VanB E. faecalis
[8] = system: Staphylococcus aureus (65 strains); test: MIC broth microdilution, S. aureus all isolates
VanC enterococci (22) = test: MIC broth microdilution, vanC-carrying enterococci
[9] = system: vancomycin-susceptible E. faecium (21); test: MIC broth microdilution, vancomycin-susceptible E. faecium
[10] = system: vancomycin-susceptible E. faecalis (23); test: MIC broth microdilution, vancomycin-susceptible E. faecalis
[11] = system: vancomycin-intermediate S. aureus (VISA, 5); test: MIC broth microdilution, VISA
[12] = system: vancomycin-resistant S. aureus (VRSA, 6); test: MIC broth microdilution, VRSA
[13] = system: heterogeneous VISA (hVISA, 10); test: MIC broth microdilution, hVISA
S. pneumoniae (22) = test: MIC broth microdilution, S. pneumoniae; settings: S. pneumoniae (22); MHB + lysed horse blood
S. aureus ATCC 25923 = test: Neutropenic murine thigh infection model; settings: for AUCc-t (AUC difference between control and treated animals): 24 h time kill
[14] = system: β-hemolytic streptococci (23); test: MIC broth microdilution, β-hemolytic streptococci; settings: β-hemolytic streptococci (23); MHB + lysed horse blood
[15] = 1 mg/kg single intraperitoneal dose
[16] = 4 mg/kg single intraperitoneal dose
[17] = 16 mg/kg single intraperitoneal dose
[18] = S. aureus (65), all resistance subsets
[19] = E. faecium, vancomycin-susceptible (21)
[20] = E. faecalis, vancomycin-susceptible (23)

SMILES: CN[C@H](CC(C)C)C(=O)N[C@H]1C(=O)N[C@@H](CC(N)=O)C(=O)N[C@H]2C(=O)N[C@H]3C(=O)N[C@H](C(=O)N[C@H](C(=O)O)c4cc(O)cc(O)c4-c4cc3ccc4O)[C@H](O)c3ccc(c(Cl)c3)Oc3cc2cc(c3O[C@@H]2O[C@H](CO)[C@@H](O)[C@H](O)[C@H]2O[C@H]2C[C@](C)(N)[C@H](O)[C@H](C)O2)Oc2ccc(cc2Cl)[C@H]1O [Vancomycin]
- MIC50 ([1]; Staphylococcus aureus, MSSA): 0.5 µg/mL (≈ 0.345 µM)
- MIC90 ([1]; Staphylococcus aureus, MSSA): 1 µg/mL (≈ 0.69 µM)
- MIC50 ([2]; Staphylococcus aureus, MRSA): 0.5 µg/mL (≈ 0.345 µM)
- MIC90 ([2]; Staphylococcus aureus, MRSA): 1 µg/mL (≈ 0.69 µM)
- MIC50 ([3]; Staphylococcus epidermidis): 1 µg/mL (≈ 0.69 µM)
- MIC90 ([3]; Staphylococcus epidermidis): 2 µg/mL (≈ 1.38 µM)
- MIC50 ([4]; Enterococcus faecium): > 64 µg/mL
- MIC90 ([4]; Enterococcus faecium): > 64 µg/mL
- MIC50 ([5]; Enterococcus faecium): 64 µg/mL (≈ 44.2 µM)
- MIC90 ([5]; Enterococcus faecium): > 64 µg/mL
- MIC50 ([6]; Enterococcus faecalis): > 64 µg/mL
- MIC90 ([6]; Enterococcus faecalis): > 64 µg/mL
- MIC50 ([7]; Enterococcus faecalis): > 64 µg/mL
- MIC90 ([7]; Enterococcus faecalis): > 64 µg/mL
- MIC50 ([8]; Staphylococcus aureus): 1 µg/mL (≈ 0.69 µM)
- MIC90 ([8]; Staphylococcus aureus): 4 µg/mL (≈ 2.76 µM)
- MIC50 (VanC enterococci (22)): 4 µg/mL (≈ 2.76 µM)
- MIC90 (VanC enterococci (22)): 4 µg/mL (≈ 2.76 µM)
- MIC50 ([9]; Enterococcus faecium): 0.5 µg/mL (≈ 0.345 µM)
- MIC90 ([9]; Enterococcus faecium): 1 µg/mL (≈ 0.69 µM)
- MIC50 ([10]; Enterococcus faecalis): 1 µg/mL (≈ 0.69 µM)
- MIC90 ([10]; Enterococcus faecalis): 2 µg/mL (≈ 1.38 µM)

SMILES: CNC(CC(C)C)C(=O)NC1C(=O)NC(CC(N)=O)C(=O)NC2C(=O)NC3C(=O)NC(C(=O)NC(C(=O)O)c4cc(O)c(CNCCOCCOCCOCCN(C)C)c(O)c4-c4cc3ccc4O)C(O)c3ccc(c(Cl)c3)Oc3cc2cc(c3OC2OC(CO)C(O)C(O)C2OC2CC(C)(NCc3ccc(-c4ccc(Cl)cc4)cc3)C(O)C(C)O2)Oc2ccc(cc2Cl)C1O (stereo not shown) [Compound 14]
- MIC 50% ([1]; MSSA (22)): 0.12 µg/mL (≈ 0.0638 µM)
- MIC 90% ([1]; MSSA (22)): 0.25 µg/mL (≈ 0.133 µM)
- MIC 50% ([2]; MRSA (22)): 0.12 µg/mL (≈ 0.0638 µM)
- MIC 90% ([2]; MRSA (22)): 0.12 µg/mL (≈ 0.0638 µM)
- MIC 50% [11]: 0.5 µg/mL (≈ 0.266 µM)
- MIC 50% [12]: 8 µg/mL (≈ 4.25 µM)
- MIC 50% [13]: 0.12 µg/mL (≈ 0.0638 µM)
- MIC 90% [13]: 0.12 µg/mL (≈ 0.0638 µM)
- MIC 50% (S. pneumoniae (22)): 0.06 µg/mL
- MIC 90% (S. pneumoniae (22)): 0.12 µg/mL
- MIC 50% ([3]; S. epidermidis (43)): 0.12 µg/mL (≈ 0.0638 µM)
- MIC 90% ([3]; S. epidermidis (43)): 0.12 µg/mL (≈ 0.0638 µM)
- MIC 50% ([4]; E. faecium, VanA (10)): 2 µg/mL (≈ 1.06 µM)
- MIC 90% ([4]; E. faecium, VanA (10)): 4 µg/mL (≈ 2.13 µM)
- MIC 50% ([5]; E. faecium, VanB (10)): 0.12 µg/mL (≈ 0.0638 µM)
- MIC 90% ([5]; E. faecium, VanB (10)): 0.12 µg/mL (≈ 0.0638 µM)
- Max Kill (maximum decrease from initial infection level) (S. aureus ATCC 25923; [15]): 0.83 Log10 CFU/thigh
- AUCc-t (AUC difference between control and treated animals) (S. aureus ATCC 25923; [15]): 11.4 (Log10 CFU/thigh)/hr
- Max Kill (maximum decrease from initial infection level) (S. aureus ATCC 25923; [16]): 0.19 Log10 CFU/thigh
- AUCc-t (AUC difference between control and treated animals) (S. aureus ATCC 25923; [16]): 19.4 (Log10 CFU/thigh)/hr
- Max Kill (maximum decrease from initial infection level) (S. aureus ATCC 25923; [17]): 0.03 Log10 CFU/thigh
- AUCc-t (AUC difference between control and treated animals) (S. aureus ATCC 25923; [17]): 36.1 (Log10 CFU/thigh)/hr
- MIC 50% ([6]; E. faecalis, VanA (11)): 8 µg/mL (≈ 4.25 µM)
- MIC 90% ([6]; E. faecalis, VanA (11)): 16 µg/mL (≈ 8.5 µM)
- MIC 50% ([7]; E. faecalis, VanB (12)): 0.25 µg/mL (≈ 0.133 µM)
- MIC 90% ([7]; E. faecalis, VanB (12)): 0.25 µg/mL (≈ 0.133 µM)
- MIC 50% [8, 18]: 0.12 µg/mL (≈ 0.0638 µM)
- MIC 90% [8, 18]: 0.5 µg/mL (≈ 0.266 µM)
- MIC 50% [14]: 0.06 µg/mL
- MIC 90% [14]: 0.06 µg/mL
- MIC 50% (VanC enterococci (22); VanC enterococci (22)): 0.25 µg/mL (≈ 0.133 µM)
- MIC 90% (VanC enterococci (22); VanC enterococci (22)): 0.5 µg/mL (≈ 0.266 µM)
- MIC 50% [9, 19]: 0.12 µg/mL (≈ 0.0638 µM)
- MIC 90% [9, 19]: 0.12 µg/mL (≈ 0.0638 µM)
- MIC 50% [10, 20]: 0.25 µg/mL (≈ 0.133 µM)
- MIC 90% [10, 20]: 0.25 µg/mL (≈ 0.133 µM)
